In patent publication US20100035802A1, “PARTICULAR SHORT-CHAIN PEPTIDE CANCER DRUG AND ITS TREATMENT” (priority 2007, published 2010):

How the values were obtained:
[1] = test system: cancer cells; assay: animal experiments: growth of cancer cells added with the short-chain peptide; format: in vivo; conditions: after having been added with the short-chain peptide for a certain period of time
Excerpt: (§1) In Attachment, Photos 1˜3 show the cell cycles of liver cancer cells respectively added and not added with the particular short-chain peptide in cell experiments. Photos 4 and 5 show the growth of cancer cells respectively added and not added with the particular short-chain peptide in animal experiments.

[2] = test system: liver cancer cells; assay: cell experiments: survival and death rate of cancer cells added with the short-chain peptide; format: cell-based
Excerpt: The percent of normal cancer cells 1 is equal to the number of normal cancer cells divided by the summation of the number of normal cancer cells, the number of interphase cancer cells and the number of mitotic phase cancer cells. The percent of interphase cancer cells 2 is equal to the number of interphase cancer cells divided by the summation of the number of normal cancer cells, the number of interphase cancer cells and the number of mitotic phase cancer cells. The percent of mitotic phase cancer cells 3 is equal to the number of mitotic phase cancer cells divided by the summation of the number of normal cancer cells, the number of interphase cancer cells and the number of mitotic phase cancer cells. The percent of dead cancer cells 4 is equal to the number of dead cancer cells divided by the summation of the number of normal cancer cells, the number of interphase cancer cells, the number of mitotic phase cancer cells and the number of dead cancer cells.
In cell experiments, the survival rate of cancer cells added with none of the short-chain peptide is as high as 95%. Apoptosis of cancer cells begins as soon as the short-chain peptide is added to cancer cells; it's obviously found out that after 24 hours, the survival rate of cancer cells is lowered to about 25% and the death rate is raised to about 70%, 35 to 40 times of normal death rate.
as §1

RGDLASLQKAAHGHVRKAFKSHVSTLTDLQPYMRQFVAHLQETSPLRD (RGDLASLQKAAHGHVRKAFKSHVSTLTDLQPYMRQFVAHLQETSPLRD) [short-chain peptide, unique short-chained peptide composed of 48 amino acids]
death of cancer cells in animal experiments (Photo 5) [1]: die massively via apoptosis | effect on cell cleavage of cancer cells ([2]; cancer cells added with the short-chain peptide): stagnating on the stage of cell cleavage for being further induced to apoptosis to death | death rate of cancer cells ([2]; cell experiments, after 24 hours with the short-chain peptide): about 70% | survival rate of cancer cells ([2]; cell experiments, after 24 hours with the short-chain peptide (without peptide 95%)): about 25% | death rate of the liver cancer cells ([2]; liver cancer cells, after 24-hour culture, repeated experiments): about 70%
